Test results taken from PubChem BioAssay (NCI).
Several values for one entry are separate records, joined by “and”; a condition that tells them apart may be missing. Equal values may be shown once.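 Protocol summary: plate cells (96-well), add compound at 5 concentrations, incubate 48 h, interpolate endpoints linearly. GI50 = concentration required for 50% inhibition of growth. Definition used: TGI = concentration required for complete inhibition of growth.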

What was measured:
Assay in all cases: inhibition of tumour cell growth, NCI panel, 48 h
HCT-15 colon = test system: HCT-15 colon
786-0 renal = test system: 786-0 renal
HT29 colon = test system: HT29 colon
HOP-62 NSCLC = test system: HOP-62 NSCLC
SF-295 CNS = test system: SF-295 CNS
TK-10 renal = test system: TK-10 renal
KM12 colon = test system: KM12 colon
SF-539 CNS = test system: SF-539 CNS
SK-MEL-2 melanoma = test system: SK-MEL-2 melanoma
SNB-75 CNS = test system: SNB-75 CNS

Compound	GI50 (HCT-15 colon)	GI50 (786-0 renal)	TGI (786-0 renal)	GI50 (HT29 colon)	TGI (HT29 colon)	GI50 (HOP-62 NSCLC)	TGI (HOP-62 NSCLC)	GI50 (SF-295 CNS)	TGI (SF-295 CNS)	GI50 (TK-10 renal)	TGI (TK-10 renal)	GI50 (KM12 colon)	TGI (KM12 colon)	GI50 (SF-539 CNS)	TGI (SF-539 CNS)	GI50 (SK-MEL-2 melanoma)	TGI (SK-MEL-2 melanoma)	GI50 (SNB-75 CNS)	TGI (SNB-75 CNS)	TGI (HCT-15 colon)
Cc1cc(Cl)ccc1Nc1nc(C(F)(F)F)ccc1C(=O)N/N=C/c1ccc([N+](=O)[O-])cc1	0.803 µM	3.09 µM	> 40.9 µM	3.11 µM	> 37.5 µM	3.35 µM	> 35.7 µM	1.55 µM	5.71 µM	1.95 µM	8.32 µM	0.838 µM	2.43 µM	2.65 µM	14.4 µM	1.92 µM	8.5 µM	1.71 µM	10 µM	
CC(C)c1cccc(C(C)C)c1NC(=O)/C(CC(=O)CC(c1ccccc1)c1c(O)c2ccccc2oc1=O)=N/O (centres undefined)			> 100 µM		> 100 µM		> 100 µM		> 100 µM		> 100 µM		> 100 µM		> 100 µM		> 100 µM		> 100 µM	> 100 µM
OC1(c2ccccc2)OC(C#Cc2ccccc2)(c2ccccc2)c2ccccc21 (centres undefined)			13.5 µM		4.38 µM		28.8 µM		18 µM		26.2 µM		2.99 µM		4.07 µM				20.4 µM	13.1 µM
COc1cc(-c2cn(-c3ccc(Cl)c(Cl)c3)c(=O)n2C(C)=O)cc(OC)c1OC	18.1 µM	2.79 µM	11.5 µM	6.32 µM	21.8 µM	7.48 µM	21.1 µM	1.53 µM	5.79 µM	12.2 µM	31 µM	12.3 µM	28.6 µM	2.07 µM	4.29 µM	10.6 µM	25.3 µM	9.64 µM	33.8 µM	45.9 µM
O=C(c1ccncc1)n1nc(-c2ccccc2)c(N=Nc2ccccc2[N+](=O)[O-])c1-c1ccccc1			> 100 µM		> 100 µM		> 100 µM		> 100 µM		> 100 µM		> 100 µM		> 100 µM		> 100 µM		> 100 µM	
Nc1ccccc1C#C/C=C\C#Cc1ccccc1[N+](=O)[O-]	0.718 µM	12.3 µM	43.2 µM			17.5 µM	48.6 µM	7.31 µM	85.8 µM	28.2 µM	> 100 µM	3.19 µM	70.6 µM	2.17 µM	10.4 µM	12.9 µM	34.7 µM	13.3 µM	58.3 µM	21.7 µM
COC1OC(CO)C(O)C1N (centres undefined)			> 100 µM		> 100 µM		> 100 µM		> 100 µM		> 100 µM		> 100 µM		> 100 µM				> 100 µM	> 100 µM
O=C1NC(=S)S/C1=C(/C=C(\CC(=O)c1ccccc1)c1ccc(Cl)cc1)c1ccccc1	15.8 µM	46.9 µM	> 100 µM			38.5 µM	> 100 µM	23.4 µM	64.7 µM	29.6 µM	> 100 µM	28.2 µM	> 100 µM	39 µM	> 100 µM					39.4 µM
CC1=C(C(=O)Nc2cccc(Cl)c2)C(c2ccccc2F)C(C(=O)Nc2cccc(Cl)c2)=C(C)N1			32.2 µM		15.5 µM		31.3 µM		36.8 µM		68.2 µM		21 µM		30.4 µM		27.1 µM		54.9 µM	
CN(C)CC1CCC/C1=N\O (centres undefined)			> 100 µM		> 100 µM		> 100 µM		> 100 µM		> 100 µM				> 100 µM		> 100 µM		> 100 µM	> 100 µM
COc1ccc(C2=NN(C=O)C(c3cccc(Nc4ccnc5cc(Cl)ccc45)c3)C2)cc1 (centres undefined)	2.13 µM	3.43 µM	17.6 µM	1.65 µM	9.7 µM	2.11 µM	16.6 µM	1.24 µM	23 µM	4.24 µM	20.2 µM	2.18 µM	37 µM	2.34 µM	7.41 µM			2.56 µM	38 µM	17 µM
Cc1ccccc1C1=C(C(=O)Nc2ccc(Cl)c(Cl)c2)NC(=S)NC1N (centres undefined)			> 100 µM		> 100 µM						> 100 µM		> 100 µM		> 100 µM		> 100 µM		> 100 µM	> 100 µM
Cc1c(C(=O)NCCN2CCOCC2)cn2ncnc(Oc3ccc(NC(=O)Nc4ccc(Cl)c(C(F)(F)F)c4)cc3)c12	1.44 µM	1.67 µM	3.33 µM	1.57 µM	> 100 µM	1.99 µM	3.92 µM	1.77 µM	3.34 µM					0.508 µM	2.14 µM					2.98 µM
COC(=O)c1ccccc1NC(=O)C(=O)NNC(=O)c1ccncc1			> 100 µM		> 100 µM		> 100 µM		> 100 µM		> 100 µM		> 100 µM		> 100 µM				> 100 µM	> 100 µM
N#CCCN(CCC#N)c1ccc(C(Sc2ccccc2)C(NC(=O)c2cc([N+](=O)[O-])ccc2Cl)C(=O)Sc2ccccc2)cc1 (centres undefined)	2.25 µM		3.95 µM	2.59 µM	7.58 µM	3.87 µM	12 µM		13.1 µM	3.97 µM	9.62 µM				4.11 µM and 3.79 µM		4.64 µM	1.85 µM	7.19 µM	11.2 µM
NC(=S)NNc1c([N+](=O)[O-])cnn(-c2ccccc2)c1=O			35.1 µM		35.1 µM		34.4 µM		29.4 µM		46.6 µM		28.2 µM		34 µM				34.1 µM	32 µM
CCOC(=O)/C=C1\CCCC12OCCO2			> 100 µM				> 100 µM				> 100 µM		> 100 µM		> 100 µM		> 100 µM		> 100 µM	> 100 µM
COC(=O)[C@]12CCC(C)[C@H](C)[C@H]1C1=CCC3[C@@]4(C)CC[C@H](OC(C)=O)C(C)(C)C4CC[C@@]3(C)C1(C)C(O)C2 (some centres undefined)			> 100 µM		> 100 µM		> 100 µM		> 100 µM		> 100 µM		> 100 µM		> 100 µM		> 100 µM		> 100 µM	

Compound	GI50 (HCT-15 colon)	GI50 (786-0 renal)	TGI (786-0 renal)	GI50 (HT29 colon)	TGI (HT29 colon)	GI50 (HOP-62 NSCLC)	TGI (HOP-62 NSCLC)	GI50 (SF-295 CNS)	TGI (SF-295 CNS)	GI50 (TK-10 renal)	TGI (TK-10 renal)	GI50 (KM12 colon)	TGI (KM12 colon)	GI50 (SF-539 CNS)	TGI (SF-539 CNS)	GI50 (SK-MEL-2 melanoma)	TGI (SK-MEL-2 melanoma)	GI50 (SNB-75 CNS)	TGI (SNB-75 CNS)	TGI (HCT-15 colon)
CN(C)/N=C(/c1nc2ccc(Cl)cc2[nH]c1=O)C(O)c1ccc(C(O)/C(=N\N(C)C)c2nc3ccc(Cl)cc3[nH]c2=O)cc1 (centres undefined)			> 100 µM		> 100 µM		> 100 µM		> 100 µM		> 100 µM		> 100 µM		> 100 µM		> 100 µM			
Cc1ccc(-c2csc(NC(=O)CN3CCN(c4cc5c(cc4F)c(=O)c(C(=O)O)cn5C4CC4)CC3)n2)cc1	0.441 µM	0.5 µM	15.2 µM	0.326 µM	6.91 µM	0.393 µM	14.6 µM	1.15 µM	13.9 µM			0.508 µM	> 100 µM	0.819 µM	18.2 µM	1.33 µM	4.09 µM	0.448 µM	11.2 µM	> 100 µM
C/C=C/C=C/C=C/C=C/C(=O)O			> 100 µM		> 100 µM		> 100 µM		> 100 µM				> 100 µM		> 100 µM		> 100 µM		> 100 µM	> 100 µM
CCN(CC)C(=S)Oc1cc2oc(=O)cc(C)c2cc1Cl			> 100 µM		> 100 µM		> 100 µM		> 100 µM		> 100 µM		> 100 µM		> 100 µM		> 100 µM			> 100 µM
CN(C)CCCNC(=O)c1ccc2c(c1)oc1cc3ccccc3c(=O)n12	12.3 µM	> 50 µM	> 50 µM	12.7 µM	27.7 µM	> 50 µM	> 50 µM	19 µM	40.5 µM	25.1 µM	> 50 µM	19.1 µM	> 50 µM			9.3 µM	32.6 µM	9.44 µM	22 µM	> 50 µM
O=[N+]([O-])c1cnn(C2=CNc3ccccc3N=C2)c1			> 100 µM		> 100 µM		> 100 µM		> 100 µM		> 100 µM				> 100 µM		> 100 µM		> 100 µM	> 100 µM
CCCCN(CCCC)c1c([N+](=O)[O-])c(=O)nc2ccccn12			> 100 µM		> 100 µM		73.6 µM				85 µM		> 100 µM		> 100 µM		> 100 µM		> 100 µM	> 100 µM
Cc1cc(S(=O)(=O)NC#N)c(S/C(=N\Nc2ccc([N+](=O)[O-])cc2)c2ccc(Cl)cc2)cc1Cl	11.6 µM	39.6 µM	> 100 µM			41.6 µM	> 100 µM	22.7 µM	65.5 µM	25 µM	> 100 µM	24.6 µM	56.9 µM	13.7 µM	28.9 µM	> 100 µM	> 100 µM	38.1 µM	> 100 µM	59.7 µM
NCCCCNc1ccc2c(=O)[nH][nH]c(=O)c2c1			> 100 µM		> 100 µM		> 100 µM		> 100 µM		> 100 µM		> 100 µM		> 100 µM		> 100 µM		> 100 µM	
CC(=O)OCC(OC(C)=O)C(OC(C)=O)C(OC(C)=O)C(=O)CNn1c(-c2ccccc2Cl)nc2ccccc2c1=O (centres undefined)			> 100 µM		> 100 µM		> 100 µM		> 100 µM				> 100 µM		> 100 µM		> 100 µM		> 100 µM	> 100 µM
Cc1nc2sccn2c1-c1csc(Nc2cccc(Cl)c2C)n1	3.62 µM	9.62 µM	79.7 µM	3.29 µM	14.7 µM	10.3 µM	> 100 µM	1.72 µM	10.6 µM			3.79 µM	21.8 µM	6.61 µM	25.3 µM	3.78 µM	14 µM	3.19 µM	28.3 µM	31.9 µM
CCN(CC)C(=S)SC			> 100 µM		> 100 µM		> 100 µM		> 100 µM		> 100 µM				> 100 µM		> 100 µM		> 100 µM	> 100 µM
CCCOc1ccc2nc(NC(=O)OC)[nH]c2c1	0.13 µM	0.47 µM	> 100 µM	0.174 µM	> 100 µM	0.417 µM	> 78.8 µM	0.215 µM	> 100 µM	> 25.5 µM	> 100 µM	0.0974 µM	> 100 µM			1.19 µM	> 100 µM			> 100 µM
CC1C(=O)OCC2=CCN3CCC(OC(=O)C(C)C1(C)O)C23 (centres undefined)			> 100 µM		> 100 µM				> 100 µM		> 100 µM		> 100 µM		> 100 µM		> 100 µM		> 100 µM	> 100 µM
COc1ccc(/C=C\c2cc(OC)c(O[Si](C)(C)C(C)(C)C)c(OC)c2)cc1			> 100 µM		> 100 µM		> 100 µM						> 100 µM		> 100 µM		65.2 µM		> 100 µM	
Nc1ccccc1C#C/C=C\C#Cc1ccccc1	26.2 µM	16.3 µM	40.9 µM	21.1 µM	44.8 µM	15 µM	33.6 µM	11.3 µM	31.8 µM			4.51 µM	20.2 µM	13 µM	28.6 µM	25.5 µM	98.3 µM	13.7 µM	58.9 µM	92.3 µM
COc1ccc(-c2oc3c(OC)c(OC)c(OC)c(OC)c3c(=O)c2OC)cc1OC			> 100 µM		64.8 µM		59.8 µM		> 100 µM		> 100 µM		> 100 µM		> 100 µM		> 100 µM			> 100 µM
O=c1cccc(C2CC(CO)C3CCCCN3C2)[nH]1 (centres undefined)			> 100 µM		> 100 µM				> 100 µM		> 100 µM		> 100 µM		> 100 µM		> 100 µM		> 100 µM	> 100 µM
